Experiments:
[1] = target: T1, HIV-1 RT enzyme (wild type) (Human immunodeficiency virus type 1 group M subtype B, UniProt P04585); assay: Reverse transcriptase (RT) enzymatic assay (IC50), PicoGreen fluorescence, wild type; type: biochemical; conditions: RT enzymatic assay, wild type; read-out: IC50 WT
T1 construct: The reverse transcriptase (RT) enzyme assay has been adapted to a 96-well microtiter plate format
Procedure: (§1) Reverse Transcriptase (RT) Assays Enzymatic Assay (IC50)
The enzymatic assay employed is described as follows: The reverse transcriptase (RT) enzyme assay has been adapted to a 96-well microtiter plate format and uses PicoGreen™ as a fluorescent intercalator. More explicitly, the HIV-1 RT enzyme was thawed and appropriately diluted into Tris/HCl 50 mM pH 7.8 containing NaCl 60 mM, MgCl2∘6H2O 2 mM, DTT 6 mM, GSH 2 mM and 0.02% w/v Chaps to give ≈10 nM enzyme. […] The plate was pre-incubated for 15 minutes at room temperature before proceeding to the next step. […] Then the enzymatic reaction was initiated by addition of 20 μL of substrate solution. […] After addition of the substrate cocktail, the plate was covered with a plastic seal and incubated for 50 minutes at 37° C. in a dry incubator. The reaction was then quenched by addition of 5 μL of EDTA 0.5 M. The plate was shaken for 30 seconds at medium speed and incubated for 5 minutes at room temperature. Then 160 μL of PicoGreen™ 1:400 dilution from commercial stock (diluted in Tris 20 mM pH 7.5 with EDTA 1 mM) was added and the plate was shaken for 30 seconds and incubated for 10 minutes at room temperature. […] Each row contained at its extremities a blank and a control well.
(§2) Table legend: A=>100; B=100-50; C=<50; NT=not tested

[2] = target: T2, HIV-1 RT resistant mutant K103N/Y181C (Human immunodeficiency virus type 1 group M subtype B, UniProt P04585, K690N/Y768C); assay: Reverse transcriptase (RT) enzymatic assay (IC50), PicoGreen fluorescence, resistant mutant; type: biochemical
T2 construct: The reverse transcriptase (RT) enzyme assay has been adapted to a 96-well microtiter plate format
Procedure: as §1
The enzymatic assay employed is described as follows: The reverse transcriptase (RT) enzyme assay has been adapted to a 96-well microtiter plate format and uses PicoGreen™ as a fluorescent intercalator. More explicitly, the HIV-1 RT enzyme was thawed and appropriately diluted into Tris/HCl 50 mM pH 7.8 containing NaCl 60 mM, MgCl2∘6H2O 2 mM, DTT 6 mM, GSH 2 mM and 0.02% w/v Chaps to give ≈10 nM enzyme. To 10 μL of this enzyme solution was added 10 μL of inhibitor solution (40 μM to […] inhibitor in the same assay buffer as above containing 4% v/v DMSO). The plate was pre-incubated for 15 minutes at room temperature before proceeding to the next step. In this pre-incubation step, the highest and lowest inhibitor concentrations were 20 μM and 1.016 nM respectively and the concentration of DMSO was 2% v/v. Then the enzymatic reaction was initiated by addition of 20 μL of substrate solution. The final reaction mixture contained Tris/HCl 50 mM pH 7.8, NaCl 60 mM, MgCl2∘6H2O 2 mM, DTT 6 mM, GSH 2 mM, CHAPS 0.02% w/v, DMSO 1% v/v, poly rC 45 nM, dG15 4.5 nM, dGTP 3.6 μM, and ≈2.5 nM enzyme. In this incubation step, the highest and lowest inhibitor concentrations were 10 μM and 0.508 nM respectively. After addition of the substrate cocktail, the plate was covered with a plastic seal and incubated for 50 minutes at 37° C. in a dry incubator. The reaction was then quenched by addition of 5 μL of EDTA 0.5 M. The plate was shaken for 30 seconds at medium speed and incubated for 5 minutes at room temperature. Then 160 μL of PicoGreen™ 1:400 dilution from commercial stock (diluted in Tris 20 mM pH 7.5 with EDTA 1 mM) was added and the plate was shaken for 30 seconds and incubated for 10 minutes at room temperature. The plate was then analyzed using a POLARstar Galaxy fluorimeter (BMG Labtechnologies) with λex and λem of 485 nm and 520 nm respectively. […] Each row contained at its extremities a blank and a control well.
as §2

[3] = test system: HIV-1 (wild type) in C8166 LTRluc cells; assay: C8166 HIV-1 luciferase assay (EC50), wild type; type: cell-based; conditions: Human immunodeficiency virus 1, C8166 HIV-1 luciferase assay (no *)
Text: (§3) C8166 HIV-1 Luciferase Assay (EC50)
(§4) Plasmid: pGL3 Basic LTR/TAR #12
Plasmid is the pGL3 Basic Vector (a promoterless luciferase expression vector from Promega catalogue #E1751) with the addition of HIV-1 H×B2 LTR sequence from nucleotide −138 to +80 (Sca1-HindIII) upstream of the luciferase gene and the gene for blasticidine resistance cloned in.
(§5) C8166 cells are a human T-lymphotrophic virus type 1 immortalized but nonexpressing line of cord blood lymphocytes and are highly permissive to HIV-1 infection. The reporter cells were made by electroporating C8166 cells with pGL3 Basic LTR/TAR and then selecting positive clones with blasticidine. The clone C8166-LTRluc #A8-F5-G7 was selected by 3 consecutive rounds of limiting dilution under blasticidine selection.
(§6) Media: Complete media consisting of: RPMI 1640+10% FBS+10^−5 M
(§7) β-mercaptoethanol+10 μg/ml gentamycin. Cultures are maintained in complete media with 5 μg/ml blasticidine, however, selection is removed for the assay.
(§8) Luciferase Assay Protocol
(§9) Serial dilutions of HIV-1 inhibitors compounds are prepared in complete media from 10 mM DMSO stock solutions. Eleven serial dilutions of 2.5× are made at 8× desired final concentration in a 1 ml deep well titer plate (96 wells). The 12th well contains complete media with no inhibitor and serves as the positive control. All samples contain the same concentration of DMSO (≦0.1% DMSO). A 25 μl aliquot of inhibitor is added, to triplicate wells, of a 96 well tissue culture treated clear view black microtiter plate (Corning Costar catalogue # 3904). The last row is reserved for uninfected C8166 LTRluc cells to serve as the background blank control and the first row is media alone.
(§10) Count C8166 LTRluc cells and place in a minimal volume of complete RPMI 1640 in a tissue culture flask (ex. 30×10^6 cells in 10 ml media/25 cm^2 flask). Infect cells with HIV-1 at a moi of 0.005. Incubate cells for 1.5 hours at 37° C. on a rotating rack in a 5% CO2 incubator. Resuspend cells in complete RPMI to give a final concentration of 25,000-cells/175 μl. Add 175 μl of cell mix to wells of 96 well microtiter plate containing 25 μl 8× inhibitors. Add 25,000 uninfected C8166-LTRluc cells/well in 200 μl complete RPMI to last row for background control. Incubate cells at 37° C. in 5% CO2 incubator for 3 days.
(§11) Add 50 μl Steady Glo (luciferase substrate T1/2=5 hours Promega catalogue # E2520) to each well of the 96 well plate. Determine the relative light units (RLU) of luciferase using the BMG LUMlstar Galaxy luminometer. Plates are read from the bottom for 2 seconds per well with a gain of 240.
(§12) The level of inhibition (% inhibition) of each well containing inhibitor was calculated with the following equation: […]
The calculated % inhibition values were then used to determine EC50, slope factor (n) and maximum inhibition (Imax) by the non-linear regression routine NLIN procedure of SAS using the following equation: […]
The results are listed in Table 9 as IC50(nM) and EC50 (nM).
as §2

[4] = test system: HIV-1 resistant mutant K103N/Y181C in C8166 LTRluc cells; assay: C8166 HIV-1 luciferase assay (EC50), resistant mutant; type: cell-based; conditions: Human immunodeficiency virus 1, C8166, read-out: EC50 K103N/Y181C
Text: as §3, §4, §5, §6, §7, §8
as §9, with “Eleven” for “Serial dilutions of HIV-1 inhibitors compounds are prepared in complete media from 10 mM DMSO stock solutions. Eleven”
as §10, with “Infect cells with HIV-1 at a moi of 0.005.” left out
as §11, §12
The calculated % inhibition values were then used to determine EC50, slope factor (n) and maximum inhibition (Imax) by the non-linear regression routine NLIN procedure of SAS using the following equation:
as §2

Cc1ccc(Cl)c(-n2nnnc2SCC(=O)Nc2ccccc2[N+](=O)[O-])c1 [Entry 145]
IC50 [1]: < 50 nM
IC50 [2]: > 100 nM
EC50 [3]: < 50 nM
EC50 [4]: > 100 nM

Cc1cc(C)c(-n2nnnc2SCC(=O)Nc2ccccc2[N+](=O)[O-])c(Cl)c1 [Entry 146]
IC50 [1]: < 50 nM
IC50 [2]: 50 to 100 nM
EC50 [3]: < 50 nM
EC50 [4]: 50 to 100 nM

Cc1cc(C)c(-n2nnnc2SCC(=O)Nc2ccccc2[N+](=O)[O-])c(Br)c1 [Entry 147]
IC50 [1]: < 50 nM
IC50 [2]: > 100 nM
EC50 [3]: < 50 nM
EC50 [4]: 50 to 100 nM

O=C(CSc1nnnn1-c1cccc2ccccc12)Nc1ccc(-c2ccccc2)cc1Cl [Entry 238]
IC50 [1]: < 50 nM
IC50 [2]: > 100 nM
EC50 [3]: 50 to 100 nM
EC50 [4]: > 100 nM

O=C(CSc1nnnn1-c1cccc2ccccc12)Nc1ccc(O)cc1Cl [Entry 246]
IC50 [1]: < 50 nM
IC50 [2]: > 100 nM
EC50 [3]: < 50 nM
EC50 [4]: > 100 nM

Cc1nnc(SCC(=O)Nc2ccccc2[N+](=O)[O-])n1-c1cccc2ccccc12 [Entry 403]
IC50 [1]: < 50 nM
IC50 [2]: > 100 nM
EC50 [3]: < 50 nM
EC50 [4]: > 100 nM

Cc1ccc(-c2ccccc2SCC(=O)Nc2ccccc2Cl)c(Cl)c1 [Entry 416]
IC50 [1]: < 50 nM
IC50 [2]: > 100 nM
EC50 [3]: < 50 nM
EC50 [4]: > 100 nM

Cc1ccc(-c2ccccc2SCC(=O)Nc2ccccc2[N+](=O)[O-])c(Cl)c1 [Entry 417]
IC50 [1]: < 50 nM
IC50 [2]: > 100 nM
EC50 [3]: < 50 nM
EC50 [4]: > 100 nM

Cc1ccc(-n2c(CCO)nnc2SCC(=O)Nc2ccc(-c3ccccc3)cc2Cl)c(Cl)c1 [Entry 429]
IC50 [1]: < 50 nM
IC50 [2]: > 100 nM
EC50 [3]: < 50 nM
EC50 [4]: > 100 nM

Cc1nnc(SCC(=O)Nc2ccccc2Cl)n1-c1ccc(C(C)(C)C)cc1Cl [Entry 430]
IC50 [1]: < 50 nM
IC50 [2]: 50 to 100 nM
EC50 [3]: < 50 nM
EC50 [4]: 50 to 100 nM

Cc1nnc(SCC(=O)Nc2ccc(S(C)(=O)=O)cc2Cl)n1-c1ccc(C(C)(C)C)cc1Cl [Entry 431]
IC50 [1]: < 50 nM
IC50 [2]: 50 to 100 nM
EC50 [3]: < 50 nM
EC50 [4]: < 50 nM
